One may read the Kd as the constant that tells how readily two partners part at equilibrium.

The species named for the experiment is Bos taurus. Nature of the experiment: Binding affinity on adrenal cortex microsomes. Format: functional.

In the case of `O=P(O)(O)O[C@@H]1[C@H](O)[C@H](O)[C@@H](OP(=O)(O)O)[C@H](OP(=O)(O)O)[C@H]1F`, the Kd is 1600 nM.
Regarding `O=P(O)(O)O[C@@H]1CC[C@@H](OP(=O)(O)O)[C@H](OP(=O)(O)O)C1`, the Kd was 4000 nM.
As to `O=P(O)(O)O[C@@H]1[C@H](O)[C@H](O)[C@@H](OP(=O)(O)O)[C@H](OP(=O)(O)O)[C@H]1O` [INS(1,4,5)P3], the Kd is 10 nM.

The values are drawn from ChEMBL document CHEMBL1150485, “Rapid synthesis and properties of ()-6-Deoxy-6-fluoro-myo-inositol-1,4,5-tris(phosphate) an analogue of myo-inositol-1,4,5-tris(phosphate)” (Bioorg Med Chem Lett, 1996).
